Test results taken from PMC11003477, “Fluorine and chlorine substituted adamantyl-urea as molecular tools for inhibition of human soluble epoxide hydrolase with picomolar efficacy” (Journal of Enzyme Inhibition and Medicinal Chemistry, 2023).
Converted amounts (≈) assume the structure as drawn. Read-outs that look alike come from different tables or passages of the source.

Assays:
human sEH [1] = molecular target: T1, human sEH (Homo sapiens, UniProt P34913); test: Human sEH inhibition, kinetic fluorescent assay (CMNPC assay); type: biochemical
T1 construct: made in house; host or cells: insect cells with baculovirus (given both as High Five cells and as Spodoptera frugiperda 21)
T1 sequence (P34913 1-555): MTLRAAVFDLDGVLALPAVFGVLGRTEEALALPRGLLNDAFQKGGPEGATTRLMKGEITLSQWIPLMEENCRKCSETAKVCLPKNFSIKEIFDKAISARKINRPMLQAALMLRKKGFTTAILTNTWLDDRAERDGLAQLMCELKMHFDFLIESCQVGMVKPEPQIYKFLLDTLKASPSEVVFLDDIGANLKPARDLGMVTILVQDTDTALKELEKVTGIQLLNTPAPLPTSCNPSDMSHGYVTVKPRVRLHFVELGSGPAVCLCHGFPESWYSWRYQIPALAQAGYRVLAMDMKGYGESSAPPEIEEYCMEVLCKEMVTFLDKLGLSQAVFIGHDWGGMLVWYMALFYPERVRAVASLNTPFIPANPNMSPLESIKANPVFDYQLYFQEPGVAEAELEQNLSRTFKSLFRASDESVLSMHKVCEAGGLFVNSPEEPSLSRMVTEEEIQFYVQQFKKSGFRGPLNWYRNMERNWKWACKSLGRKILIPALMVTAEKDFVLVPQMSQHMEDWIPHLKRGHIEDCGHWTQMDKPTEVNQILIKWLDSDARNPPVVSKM
Protocol: Recombinant human and recombinant rat sEH were produced in insect High Five cells using recombinant baculovirus expression vectors, and purified by affinity chromatography as reported previously.[31]^,[32] […] Human sEH was obtained by expressing cDNA in the baculovirus system in the cell line Spodoptera frugiperda 21.
Determination of inhibitory potency (IC50) by fluorescent assay (CMNPC assay)[27]
The enzyme (ca. 1 nM human sEH) was incubated at 30 °C with inhibitors ([I]final = 0.4–100,000 nM) for 5 min in 100 mM sodium phosphate buffer (200 μL, pH 7.4) containing 0.1 mg mL^−1 of BSA and 1% of DMSO. The substrate (cyano(2-methoxynaphthalen-6-yl)methyl trans-(3-phenyloxyran-2-yl)methylcarbonate, CMNPC) was then added ([S]final = 5 μM). The activity was assessed by measuring the appearance of the fluorescent 6-methoxynaphthaldehyde product ([…]) at 30 °C during a 10 min incubation (Spectramax M2; Molecular Device, Inc., Sunnyvale, CA).

[2] = Aqueous solubility by turbidimetric assay; type: physicochemical; details: aqueous buffer, kinetic from dmso stock, sodium phosphate buffer (pH 7.4, 0.1 M) containing 1% of DMSO, read-out: Saq (aqueous solubility)
Protocol: Solubilities were measured in sodium phosphate buffer (pH 7.4, 0.1 M) containing 1% of DMSO by turbidimetric assay.

human sEH [3] = molecular target: T1, human sEH; details: cited from earlier work
[4] = CMNPC fluorescent assay, means of three independent experiments, measurement limit 0.04 nM, read-out: IC50

Row | Compound | IC50 (human sEH [1]; [4]) [nM] | solubility [2] [µM] | melting point [°C] | IC50 (human sEH [1]; value below the accuracy limit of the assay (0.04 nM), read-out: IC50 as measured, before reduction to the measurement limit) [nM] | IC50 (human sEH [3]; chlorine derivative of t-AUCB without methylene bridge) [nM] | IC50 (human sEH [3]; earlier version of the assay with a measurement limit of 0.4 nM) [nM]
1 | O=C(NC12CC3CC(CC(Cl)(C3)C1)C2)N[C@H]1CC[C@H](Oc2ccc(C(=O)O)cc2)CC1 [Compound 1c] | – | – | – | – | 1.4 | –
2 | O=C(NCCCCCCNC(=O)NCC12CC3CC(CC(C3)C1)C2)NCC12CC3CC(CC(C3)C1)C2 [DAMH, 1,1'-(hexane-1,6-diyl)bis(3-(adamantan-1-ylmethyl)urea), reference compound] | 0.4 | 65 ± 5 (≈ 32.4 µg/mL) | – | – | – | 1
3 | O=C(NCCCCCNC(=O)NCC12CC3CC(CC(F)(C3)C1)C2)NCC12CC3CC(CC(F)(C3)C1)C2 [Compound 11d] | 0.4 | 140 ± 20 (≈ 72.9 µg/mL) | 75 to 76 | – | – | –
4 | O=C(NCCCNC(=O)NCC12CC3CC(CC(F)(C3)C1)C2)NCC12CC3CC(CC(F)(C3)C1)C2 [Compound 11b] | 1.8 | 150 ± 20 (≈ 73.9 µg/mL) | 87 to 88 | – | – | –
5 | O=C(NCCNC(=O)NCC12CC3CC(CC(Cl)(C3)C1)C2)NCC12CC3CC(CC(Cl)(C3)C1)C2 [Compound 12a] | 5.1 | 60 ± 10 (≈ 30.7 µg/mL) | 222 to 223 | – | – | –
6 | O=C(NCCNC(=O)NCC12CC3CC(CC(F)(C3)C1)C2)NCC12CC3CC(CC(F)(C3)C1)C2 [Compound 11a] | 9.2 | 150 ± 20 (≈ 71.8 µg/mL) | 78 to 79 | – | – | –
7 | O=C(NCCCCCCCCCNC(=O)NCC12CC3CC(CC(F)(C3)C1)C2)NCC12CC3CC(CC(F)(C3)C1)C2 [Compound 11h] | 0.05 | 200 ± 20 (≈ 115 µg/mL) | 73 to 74 | – | – | –
8 | O=C(NCC12CC3CC(CC(F)(C3)C1)C2)N[C@H]1CC[C@H](Oc2ccc(C(=O)O)cc2)CC1 [Compound 9] | 0.6 | 150 ± 20 (≈ 66.7 µg/mL) | 85 to 86 | – | – | –
9 | O=C(NCCCCCCCCNC(=O)NCC12CC3CC(CC(Cl)(C3)C1)C2)NCC12CC3CC(CC(Cl)(C3)C1)C2 [Compound 12g] | 0.1 | 60 ± 10 (≈ 35.7 µg/mL) | 187 to 188 | – | – | –
10 | O=C(NCCCCNC(=O)NCC12CC3CC(CC(F)(C3)C1)C2)NCC12CC3CC(CC(F)(C3)C1)C2 [Compound 11c] | 0.5 | 180 ± 20 (≈ 91.2 µg/mL) | 142 to 143 | – | – | –

Second part, led by results:

Row | IC50 (human sEH [1]; [4]) [nM] | solubility [2] [µM] | melting point [°C] | IC50 (human sEH [1]; value below the accuracy limit of the assay (0.04 nM), read-out: IC50 as measured, before reduction to the measurement limit) [nM] | Compound | IC50 (human sEH [3]; chlorine derivative of t-AUCB without methylene bridge) [nM] | IC50 (human sEH [3]; earlier version of the assay with a measurement limit of 0.4 nM) [nM]
11 | < 0.04 | 60 ± 10 (≈ 37.4 µg/mL) | 189 to 190 | – | O=C(NCCCCCCCCCCNC(=O)NCC12CC3CC(CC(Cl)(C3)C1)C2)NCC12CC3CC(CC(Cl)(C3)C1)C2 [Compound 12i] | – | –
12 | < 0.04 | 60 ± 10 (≈ 34.1 µg/mL) | 148 to 149 | – | O=C(NCCCCCCNC(=O)NCC12CC3CC(CC(Cl)(C3)C1)C2)NCC12CC3CC(CC(Cl)(C3)C1)C2 [Compound 12e] | – | –
13 | < 0.04 | 160 ± 20 (≈ 73.8 µg/mL) | 192 to 193 | – | O=C(NCC12CC3CC(CC(Cl)(C3)C1)C2)N[C@H]1CC[C@H](Oc2ccc(C(=O)O)cc2)CC1 [Compound 10] | – | –
14 | < 0.04 | 80 ± 10 (≈ 42 µg/mL) | 194 to 195 | – | O=C(NCCCNC(=O)NCC12CC3CC(CC(Cl)(C3)C1)C2)NCC12CC3CC(CC(Cl)(C3)C1)C2 [Compound 12b] | – | –
15 | < 0.04 | 80 ± 10 (≈ 46.5 µg/mL) | 164 to 165 | – | O=C(NCCCCCCCNC(=O)NCC12CC3CC(CC(Cl)(C3)C1)C2)NCC12CC3CC(CC(Cl)(C3)C1)C2 [Compound 12f] | – | –
16 | 0.05 | 150 ± 20 (≈ 88.6 µg/mL) | 76 to 77 | – | O=C(NCCCCCCCCCCNC(=O)NCC12CC3CC(CC(F)(C3)C1)C2)NCC12CC3CC(CC(F)(C3)C1)C2 [Compound 11i] | – | –
17 | < 0.04 | 150 ± 20 (≈ 80.2 µg/mL) | 82 to 83 | – | O=C(NCCCCCCNC(=O)NCC12CC3CC(CC(F)(C3)C1)C2)NCC12CC3CC(CC(F)(C3)C1)C2 [Compound 11e] | – | –
18 | < 0.04 | 70 ± 10 (≈ 38.8 µg/mL) | 157 to 158 | 0.002 | O=C(NCCCCCNC(=O)NCC12CC3CC(CC(Cl)(C3)C1)C2)NCC12CC3CC(CC(Cl)(C3)C1)C2 [Compound 12d] | – | –
19 | < 0.04 | 200 ± 20 (≈ 110 µg/mL) | 77 to 78 | – | O=C(NCCCCCCCNC(=O)NCC12CC3CC(CC(F)(C3)C1)C2)NCC12CC3CC(CC(F)(C3)C1)C2 [Compound 11f] | – | –
20 | < 0.04 | 180 ± 20 (≈ 101 µg/mL) | 95 to 96 | – | O=C(NCCCCCCCCNC(=O)NCC12CC3CC(CC(F)(C3)C1)C2)NCC12CC3CC(CC(F)(C3)C1)C2 [Compound 11g] | – | –
21 | < 0.04 | 60 ± 10 (≈ 32.4 µg/mL) | 213 to 214 | – | O=C(NCCCCNC(=O)NCC12CC3CC(CC(Cl)(C3)C1)C2)NCC12CC3CC(CC(Cl)(C3)C1)C2 [Compound 12c] | – | –
